Converted amounts (≈) assume the structure as drawn.
Test: Compound solubility in water
Type: physicochemical

Point of comparison: `C#C[C@H]1CC[C@H](NC(=O)c2cnn3c(C)cc(C)nc23)CC1` [III-14], solubility 17.6 µg/mL (≈ 59.4 µM). Against it:
- C#Cc1ccc(NC(=O)c2cnn3c(C)cc(C)nc23)nc1 [III-1] — lower, < 1.5 µg/mL
- C#Cc1ccc(NC(=O)c2cnn3c(C)cc(C)nc23)cn1 [III-2] — lower, < 1.5 µg/mL
- Cc1cc(C)n2ncc(C(=O)Nc3ccc(-c4ccccc4)cc3)c2n1 [III-3] — lower, < 1.5 µg/mL
- COCC#Cc1ccc(NC(=O)c2cnn3c(C)cc(C)nc23)cc1 [III-4] — lower, < 1.5 µg/mL
- Cc1cc(C)n2ncc(C(=O)Nc3ccc(Oc4ccccc4)cc3)c2n1 [III-5] — lower, < 1.5 µg/mL
- Cc1cc(C)n2ncc(C(=O)Nc3ccc(-n4ccnc4)cc3)c2n1 [III-6] — lower, < 1.5 µg/mL
- Cc1cc(C)n2ncc(C(=O)Nc3ccc(-c4nccs4)cc3)c2n1 [III-7] — lower, < 1.5 µg/mL
- C#Cc1ccc(NC(=O)c2cnn3c(C)cc(C)nc23)c(OC)c1 [III-8] — lower, < 1.5 µg/mL
- Cc1cc(C)n2ncc(C(=O)Nc3ccc(-c4ccon4)cc3)c2n1 [III-9] — lower, < 1.5 µg/mL
- Cc1cc(C)n2ncc(C(=O)Nc3ccc(-c4cocn4)cc3)c2n1 [III-10] — lower, < 1.5 µg/mL
- Cc1cc(C)n2ncc(C(=O)Nc3ccc(-c4ncco4)cc3)c2n1 [III-11] — lower, < 1.5 µg/mL
- Cc1cc(C)n2ncc(C(=O)Nc3cc(-c4ccccc4)on3)c2n1 [III-12] — lower, < 1.5 µg/mL
- C#CC1CCC(NC(=O)c2cnn3c(C)cc(C)nc23)CC1 (stereo not drawn) [III-13] — within 1.5-fold, 26 µg/mL (≈ 87.7 µM)
- C#C[C@H]1CC[C@@H](NC(=O)c2cnn3c(C)cc(C)nc23)CC1 [III-15] — 2.2-fold lower, 8 µg/mL (≈ 27 µM)
- Cc1cc(C)n2ncc(C(=O)Nc3ccc(-c4cnsc4)cc3)c2n1 [III-16] — lower, < 1.5 µg/mL
- Cc1cc(C)n2ncc(C(=O)Nc3ccc(-c4cnoc4)cc3)c2n1 [III-17] — lower, < 1.5 µg/mL
- Cc1cc(C)n2ncc(C(=O)Nc3cc(C4(C(F)(F)F)CC4)on3)c2n1 [III-18] — 6.8-fold lower, 2.6 µg/mL (≈ 7.12 µM)
- Cc1cc(C)n2ncc(C(=O)Nc3ccc(-c4cocn4)nc3)c2n1 [III-19] — 5.9-fold lower, 3 µg/mL (≈ 8.97 µM)
- Cc1cc(C)n2ncc(C(=O)Nc3ccc(-c4cccs4)nc3)c2n1 [III-20] — lower, < 1.5 µg/mL
- Cc1cc(C)n2ncc(C(=O)Nc3ccc(-c4ccncc4)nc3)c2n1 [III-21] — lower, < 1.5 µg/mL
- Cc1cc(C)n2ncc(C(=O)Nc3ccc(-c4ccco4)nc3)c2n1 [III-22] — lower, < 1.5 µg/mL
- Cc1cc(C)n2ncc(C(=O)Nc3ccc(-c4cnn(C)c4)nc3)c2n1 [III-23] — lower, < 1.5 µg/mL
- Cc1cc(C)n2ncc(CNc3ccc(-c4cocn4)nc3)c2n1 [III-24] — higher, > 64 µg/mL
- Cc1ccn2ncc(CNc3ccc(-c4cocn4)cc3)c2n1 [III-25] — 3.1-fold higher, 54 µg/mL (≈ 177 µM)
- Cc1ccn2ncc(CNc3ccc(-c4ncco4)cc3)c2n1 [III-26] — 2.2-fold higher, 39 µg/mL (≈ 128 µM)
- Cc1cc(C)n2ncc(C(=O)Nc3ccc(-c4cscn4)cc3)c2n1 [III-27] — lower, < 1.5 µg/mL
- Cc1cc(C)n2ncc(C(=O)Nc3nc4ccccc4[nH]3)c2n1 [III-28] — lower, < 1.5 µg/mL
- COCC#Cc1ccc(NCc2cnn3c(C)cc(C)nc23)cc1 [III-29] — 3.3-fold lower, 5.4 µg/mL (≈ 16.9 µM)
- Cc1cc(C)n2ncc(C(=O)Nc3ccc(-c4ncc[nH]4)cc3)c2n1 [III-30] — lower, < 1.5 µg/mL
- Cc1cc(C)n2ncc(C(=O)Nc3ccc(-c4cc[nH]n4)cc3)c2n1 [III-31] — 1.9-fold higher, 33 µg/mL (≈ 99.3 µM)
- CCCCCOc1ccc(NC(=O)c2cnn3c(C)cc(C)nc23)cc1 [III-32] — lower, < 1.5 µg/mL
- C#CCOc1ccc(NC(=O)c2cnn3c(C)cc(C)nc23)cc1 [III-33] — lower, < 1.5 µg/mL
- Cc1cc(C)n2ncc(C(=O)Nc3ccc(CCCC(=O)O)cc3)c2n1 [III-34] — lower, < 1.5 µg/mL
- Cc1cc(C)n2ncc(C(=O)Nc3ccc(C(C)O)cc3)c2n1 (stereo not drawn) [III-35] — 1.8-fold lower, 10 µg/mL (≈ 32.2 µM)
- Cc1cc(C)n2ncc(C(=O)Nc3ccc(CCC(=O)O)cc3)c2n1 [III-36] — 3.4-fold higher, 59.6 µg/mL (≈ 176 µM)
- Cc1cc(C)n2ncc(CNc3ccc(-c4cocn4)cc3)c2n1 [III-37] — within 1.5-fold, 26.1 µg/mL (≈ 81.7 µM)
- Cc1cc(C)n2ncc(C(=O)Nc3ccc(N=[N+]=[N-])cc3)c2n1 [III-38] — lower, < 1.5 µg/mL
- Cc1cc(C)n2ncc(C(=O)Nc3ccc(-c4cccs4)cc3)c2n1 [III-39] — lower, < 1.5 µg/mL
- Cc1cc(C)n2ncc(C(=O)Nc3ccc4[nH]c(C)cc4c3)c2n1 [III-40] — 59-fold lower, 0.3 µg/mL (≈ 0.939 µM)
- Cc1cc(C)n2ncc(C(=O)Nc3ccc4[nH]ncc4c3)c2n1 [III-41] — 35-fold lower, 0.5 µg/mL (≈ 1.63 µM)
- Cc1cc(C)n2ncc(C(=O)Nc3ccc4cn[nH]c4c3)c2n1 [III-42] — 44-fold lower, 0.4 µg/mL (≈ 1.31 µM)
- Cc1cc(C)n2ncc(C(=O)Nc3ccc4nc(C)oc4c3)c2n1 [III-44] — 59-fold lower, 0.3 µg/mL (≈ 0.934 µM)
- Cc1cc(C)n2ncc(C(=O)Nc3ccc4nc(C)[nH]c4c3)c2n1 [III-45] — 15-fold lower, 1.2 µg/mL (≈ 3.75 µM)
- Cc1cc(C)n2ncc(C(=O)Nc3ccc4c(c3)CCNC4)c2n1 [III-46] — 1.9-fold higher, 33.4 µg/mL (≈ 104 µM)
- Cc1cc(C)n2ncc(C(=O)Nc3ccc4oncc4c3)c2n1 [III-47] — 20-fold lower, 0.9 µg/mL (≈ 2.93 µM)
- Cc1cc(C)n2ncc(C(=O)Nc3ccc4oc(-c5ccncc5)nc4c3)c2n1 [III-48] — 59-fold lower, 0.3 µg/mL (≈ 0.78 µM)
- Cc1cc(C)n2ncc(C(=O)Nc3ccc4[nH]c(-c5ccco5)nc4c3)c2n1 [III-49] — 44-fold lower, 0.4 µg/mL (≈ 1.07 µM)
- Cc1cc(C)n2ncc(C(=O)Nc3ccc4nc(C)sc4c3)c2n1 [III-50] — 7.7-fold lower, 2.3 µg/mL (≈ 6.82 µM)
- Cc1cc(C)n2ncc(C(=O)Nc3ccc(Cl)c(COc4cccnc4)c3)c2n1 [III-51] — 290-fold lower, 0.06 µg/mL (≈ 0.147 µM)
- Cc1cc(C)n2ncc(C(=O)Nc3ccc(C)c(-c4ncco4)c3)c2n1 [III-52] — 350-fold lower, 0.05 µg/mL (≈ 0.144 µM)
- Cc1cc(C)n2ncc(C(=O)Nc3ccc(Cl)c(-c4cnco4)c3)c2n1 [III-53] — lower, < 0.05 µg/mL
- Cc1cc(C)n2ncc(C(=O)Nc3ccc(-c4cnn(C)c4)cc3)c2n1 [III-54] — 8.4-fold lower, 2.1 µg/mL (≈ 6.06 µM)
- Cc1cc(C)n2ncc(C(=O)Nc3ccc(-c4ccco4)cc3)c2n1 [III-55] — lower, < 1.5 µg/mL
- Cc1cc(C)n2ncc(C(=O)Nc3ccc(-c4ccncc4)cc3)c2n1 [III-56] — lower, < 1.5 µg/mL
- Cc1cc(C)n2ncc(C(=O)NC3CCCc4ccccc43)c2n1 (stereo not drawn) [III-58] — 6.8-fold lower, 2.6 µg/mL (≈ 8.11 µM)
- CCCCCO[C@H]1CC[C@H](NC(=O)c2cnn3c(C)cc(C)nc23)CC1 [III-59] — 2.5-fold lower, 7.1 µg/mL (≈ 19.8 µM)
- Cc1cc(C)n2ncc(C(=O)N[C@@H](C)c3ccccc3F)c2n1 [III-60] — 2.4-fold lower, 7.2 µg/mL (≈ 23.1 µM)
- COc1ccccc1[C@H](C)NC(=O)c1cnn2c(C)cc(C)nc12 [III-61] — 13-fold lower, 1.4 µg/mL (≈ 4.32 µM)
- COc1ccccc1[C@@H](C)NC(=O)c1cnn2c(C)cc(C)nc12 [III-62] — 7-fold lower, 2.5 µg/mL (≈ 7.71 µM)
- Cc1cc(C)n2ncc(C(=O)N[C@@H](C)c3cccc(Cl)c3)c2n1 [III-63] — within 1.5-fold, 11.9 µg/mL (≈ 36.2 µM)
- Cc1cc(C)n2ncc(C(=O)N[C@H](C)c3ccc(Cl)cc3)c2n1 [III-64] — 25-fold lower, 0.7 µg/mL (≈ 2.13 µM)
- Cc1cc(C)n2ncc(C(=O)N[C@H](C)c3ccc(F)cc3)c2n1 [III-65] — 1.6-fold higher, 27.6 µg/mL (≈ 88.4 µM)
- Cc1cc(C)n2ncc(C(=O)NC(C)C3CCC(F)(F)CC3)c2n1 (stereo not drawn) [III-66] — within 1.5-fold, 20.6 µg/mL (≈ 61.2 µM)
- Cc1cc(C)n2ncc(C(=O)NC(C)(C)c3ccc(Cl)cc3)c2n1 [III-67] — 8-fold lower, 2.2 µg/mL (≈ 6.42 µM)
- Cc1cc(Cl)n2ncc(C(=O)NC(C)(C)c3ccc(Cl)cc3)c2n1 [III-68] — 8.4-fold lower, 2.1 µg/mL (≈ 5.78 µM)
- Cc1cc(Cl)nc2c(C(=O)NC(C)(C)c3ccc(Cl)cc3)cnn12 [III-69] — 3.5-fold lower, 5.1 µg/mL (≈ 14 µM)
- Cc1cc(C)n2ncc(C(=O)NC(C)(C)c3ccc(F)cc3F)c2n1 [III-70] — 8.8-fold lower, 2 µg/mL (≈ 5.81 µM)
- CO[C@H]1CC[C@H](C(C)(C)NC(=O)c2cnn3c(C)cc(C)nc23)CC1 [III-71] — within 1.5-fold, 21.4 µg/mL (≈ 62.1 µM)
- CO[C@H]1CC[C@@H](C(C)(C)NC(=O)c2cnn3c(C)cc(C)nc23)CC1 [III-72] — within 1.5-fold, 15.1 µg/mL (≈ 43.8 µM)
- Cc1cc(C)n2ncc(C(=O)Nc3ccc4c(c3)C(C3=NCCN3)CCC4)c2n1 (stereo not drawn) [III-73] — 1.9-fold higher, 34 µg/mL (≈ 87.5 µM)
- C#Cc1ccc(NCc2cnn3c(C)cc(C)cc23)cc1 [III-74] — 88-fold lower, 0.2 µg/mL (≈ 0.726 µM)
- Cc1cc(C)n2ncc(C(=O)Nc3ccc(Cl)c(C(C)Oc4cccnc4)c3)c2n1 (stereo not drawn) [III-75] — 180-fold lower, 0.1 µg/mL (≈ 0.237 µM)
- C#Cc1ccc(NC(=O)c2cnn3c(C)cc(NC)nc23)cc1 [III-77] — 4.2-fold lower, 4.2 µg/mL (≈ 13.8 µM)
- C#Cc1ccc(NC(=O)c2cnn3c(NC)cc(C)nc23)cc1 [III-78] — lower, < 1.5 µg/mL
- Cc1cc(C)n2ncc(C(=O)NC3CCc4ccccc43)c2n1 (stereo not drawn) [III-79] — 22-fold lower, 0.8 µg/mL (≈ 2.61 µM)
- C#Cc1ccc(NC(=O)c2cnn3c(C)cc(C)nc23)cc1 [IV-1] — lower, < 1.5 µg/mL
- Cc1cc(C)n2ncc(C(=O)Nc3ccc(C#CCN(C)C)cc3)c2n1 [IV-2] — 3.5-fold lower, 5.1 µg/mL (≈ 14.7 µM)
- Cc1cc(C)n2ncc(C(=O)Nc3ccc(N4CCCCC4)cc3)c2n1 [IV-3] — lower, < 1.5 µg/mL
- Cc1cc(C)n2ncc(C(=O)Nc3ccc4c(c3)OCO4)c2n1 [IV-4] — 29-fold lower, 0.6 µg/mL (≈ 1.93 µM)
- Cc1cc(C)n2ncc(C(=O)Nc3ccc4c(c3)CCC4)c2n1 [IV-5] — 35-fold lower, 0.5 µg/mL (≈ 1.63 µM)
